Data as given in patent US8148373B2, “Compounds” (AstraZeneca AB, priority 2008, dated 2012).
Structures can show the parent of a compound that is named as a salt.

Assays:
[1] = target: T1, human muscarinic acetylcholine M3 receptor (M3-ACh) (Homo sapiens, UniProt P20309); assay: Muscarinic 3 Receptor Binding Assay ([3H]NMS competition, SPA); details: [3H]NMS 0.1 nM, CHO-K1 cell membranes, 16 hours at room temperature; read-out: M3 pIC50 (converted)
T1 construct: expressed in transfected cells; host or cells: CHO-K1 (Chinese Hamster Ovary) cell membranes
Description: Muscarinic 3 Receptor Binding Assay
The affinity (pIC50) of compounds binding to the M3 receptor is determined by competition binding of [^3H]N-methyl scopolamine (NMS) to CHO-K1 (Chinese Hamster Ovary) cell membranes expressing the human muscarinic acetylcholine M3 receptor (M3-ACh) in a scintillation proximity assay (SPA) format.
SPA beads are precoated with membranes and then incubated at 2 mg of beads per well with serial dilutions of compounds of the invention, [^3H]NMS at 0.1 nM, quarter Kd (experimentally determined dissociation constant) and assay buffer (20 mM HEPES pH 7.4 containing 5 mM MgCl2). The assay is conducted in a final volume of 200 μL, in the presence of 1% (v/v) dimethyl sulphoxide (DMSO). Total binding of [^3H]NMS is determined in the absence of competing compound and non-specific binding of [^3H]NMS is determined in the presence of 1 μM atropine. The plates are incubated for 16 hours at room temperature and then read on Wallac Microbeta™ using a normalised ^3H protocol. The pIC50, defined as the negative logarithm of the molar concentration of compound required for 50% reduction in specific [^3H]-NMS binding, is determined.

[2] = target: T2, Adrenergic β2 (H292 cells) (Homo sapiens, UniProt P07550); assay: Assay for Adrenergic β2 Mediated cAMP Production (concentration response, AlphaScreen cAMP detection); format: cell-based; details: for EC50: cAMP production, 60 minutes at room temperature, 300 μM rolipram, read-out: β2 pEC50 (converted); for β2 Intrinsic activity: fraction relative to the maximum activity determined for formoterol
T2 construct: endogenous in cells; host or cells: H292 cells
Description: Assay for Adrenergic β2 Mediated Camp Production
H292 cells are grown in 225 cm2 flasks incubator at 37° C., 5% CO2 in RPMI medium containing 10% (v/v) FBS (foetal bovine serum) and 2 mM L-glutamine.
Adherent H292 cells are removed from tissue culture flasks by treatment with Accutase™ cell detachment solution for 15 minutes. Flasks are incubated for 15 minutes in a humidified incubator at 37° C., 5% CO2. Detached cells are re-suspended in RPMI media (containing 10% (v/v) FBS and 2 mM L-glutamine) at 0.1×10^6 cells per mL. 10000 cells in 100 μL are added to each well of a tissue-culture-treated 96-well plate and the cells incubated overnight in a humidified incubator at 37° C., 5% CO2. The culture media is removed and cells are washed twice with 100 μL assay buffer and replaced with 50 μL assay buffer (HBSS solution containing 10 mM HEPES pH7.4 and 5 mM glucose). Cells are rested at room temperature for 20 minutes after which time 25 μL of rolipram (1.2 mM made up in assay buffer containing 2.4% (v/v) dimethylsulphoxide) is added. Cells are incubated with rolipram for 10 minutes after which time test compounds are added and the cells are incubated for 60 minutes at room temperature. The final rolipram concentration in the assay is 300 μM and final vehicle concentration is 1% (v/v) dimethylsulphoxide. The reaction is stopped by removing supernatants, washing once with 100 μL assay buffer and replacing with 50 μL lysis buffer. The cell monolayer is frozen at −80° C. for 30 minutes (or overnight).
AlphaScreen™ cAMP Detection
The concentration of cAMP (cyclic adenosine monophosphate) in the cell lysate is determined using AlphaScreen™ methodology. The frozen cell plate is thawed for 20 minutes on a plate shaker then 10 μL of the cell lysate is transferred to a 96-well white plate. 40 μL of mixed AlphaScreen™ detection beads pre-incubated with biotinylated cAMP, is added to each well and the plate incubated at room temperature for 3 hours in the dark. The AlphaScreen™ signal is measured using an EnVision spectrophotometer (Perkin-Elmer Inc.) with the recommended manufacturer's settings. cAMP concentrations are determined by reference to a calibration curve determined in the same experiment using standard cAMP concentrations. Concentration response curves for agonists are constructed and data is fitted to a four parameter logistic equation to determine both the pEC50 and Intrinsic Activity. Intrinsic Activity is expressed as a fraction relative to the maximum activity determined for formoterol in each experiment.

T2 sequence (P07550 whole entry): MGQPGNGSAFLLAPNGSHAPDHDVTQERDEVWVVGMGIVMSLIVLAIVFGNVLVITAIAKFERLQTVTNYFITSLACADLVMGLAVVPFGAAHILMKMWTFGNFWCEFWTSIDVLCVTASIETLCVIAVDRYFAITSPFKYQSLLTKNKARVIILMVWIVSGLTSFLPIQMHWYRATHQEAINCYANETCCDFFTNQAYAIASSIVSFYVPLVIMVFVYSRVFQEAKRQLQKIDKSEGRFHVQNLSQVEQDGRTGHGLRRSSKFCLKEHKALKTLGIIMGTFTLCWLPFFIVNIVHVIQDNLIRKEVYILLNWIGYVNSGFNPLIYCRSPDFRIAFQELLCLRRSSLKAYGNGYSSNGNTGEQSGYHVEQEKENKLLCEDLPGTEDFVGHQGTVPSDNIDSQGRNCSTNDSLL
T1 sequence (P20309 whole entry): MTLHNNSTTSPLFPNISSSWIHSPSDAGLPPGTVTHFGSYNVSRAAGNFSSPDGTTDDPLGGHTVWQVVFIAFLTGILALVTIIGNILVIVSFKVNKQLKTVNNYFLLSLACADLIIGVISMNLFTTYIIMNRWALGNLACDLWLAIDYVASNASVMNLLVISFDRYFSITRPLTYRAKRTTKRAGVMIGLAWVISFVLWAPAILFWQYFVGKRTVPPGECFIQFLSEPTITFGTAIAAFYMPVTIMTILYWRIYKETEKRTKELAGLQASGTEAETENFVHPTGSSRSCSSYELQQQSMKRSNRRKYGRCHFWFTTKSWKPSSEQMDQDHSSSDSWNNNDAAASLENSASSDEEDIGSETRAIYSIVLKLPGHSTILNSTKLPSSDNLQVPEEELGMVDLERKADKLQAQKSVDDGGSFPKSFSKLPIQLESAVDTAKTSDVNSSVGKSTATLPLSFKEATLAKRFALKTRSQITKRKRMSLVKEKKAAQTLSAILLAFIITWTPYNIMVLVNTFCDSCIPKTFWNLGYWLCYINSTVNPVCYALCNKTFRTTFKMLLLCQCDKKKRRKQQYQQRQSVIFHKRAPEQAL

`Cc1ccc(C(=O)N2CCOC3(CCN(Cc4cccc(CCNC[C@H](O)c5ccc(O)c6[nH]c(=O)sc56)c4)CC3)C2)s1` [Example 15, (R)-4-Hydroxy-7-(1-hydroxy-2-(3-((4-(5-methylthiophene-2-carbonyl)-1-oxa-4,9-diazaspiro[5.5]undecan-9-yl)methyl)phenethylamino)ethyl)benzo[d]thiazol-2(3H)-one trifluoroacetate] was tested, and the IC50 [1] was 1.26 nM, the EC50 [2] was 2.51 nM and the “β2 Intrinsic activity” value [2] was 0.9.

In the case of `Cc1nc(C(=O)N2CCOC3(CCN(Cc4ccc(CCNC[C@H](O)c5ccc(O)c6[nH]c(=O)sc56)cc4)CC3)C2)cs1` [Example 16, (R)-4-Hydroxy-7-(1-hydroxy-2-(4-((4-(2-methylthiazole-4-carbonyl)-1-oxa-4,9-diazaspiro[5.5]undecan-9-yl)methyl)phenethylamino)ethyl)benzo[d]thiazol-2(3H)-one ditrifluoroacetate], the IC50 [1] is reported as 7.94 nM, the EC50 [2] is reported as 15.8 nM and the “β2 Intrinsic activity” value [2] is reported as 0.9.

`Cc1nc(C(=O)N2CCOC3(CCN(Cc4ccc(CCNC[C@H](O)c5ccc(O)c6[nH]c(=O)ccc56)cc4)CC3)C2)cs1` [Example 17, (R)-8-Hydroxy-5-(1-hydroxy-2-(4-((4-(2-methylthiazole-4-carbonyl)-1-oxa-4,9-diazaspiro[5.5]undecan-9-yl)methyl)phenethylamino)ethyl)quinolin-2(1H)-one ditrifluoroacetate] was tested, and the IC50 [1] was 50.1 nM, the EC50 [2] was 50.1 nM and the “β2 Intrinsic activity” value [2] was 0.5.

For `Cc1nc(C(=O)N2CCOC3(CCN(CCOc4cc(C)c(CNC[C@H](O)c5ccc(O)c6[nH]c(=O)sc56)cc4C)CC3)C2)cs1` [Example 18, (R)-7-(2-(2,5-Dimethyl-4-(2-(4-(2-methylthiazole-4-carbonyl)-1-oxa-4,9-diazaspiro[5.5]undecan-9-yl)ethoxy)benzylamino)-1-hydroxyethyl)-4-hydroxybenzo[d]thiazol-2(3H)-one ditrifluoroacetate], the IC50 [1] was 2.51 nM, the EC50 [2] was 63.1 nM and the “β2 Intrinsic activity” value [2] was 1.

`Cc1nc(C(=O)N2CCOC3(CCN(Cc4cc(F)cc(CCNC[C@H](O)c5ccc(O)c6[nH]c(=O)sc56)c4)CC3)C2)cs1` [Example 19, (R)-7-(2-(3-Fluoro-5-((4-(2-methylthiazole-4-carbonyl)-1-oxa-4,9-diazaspiro[5.5]undecan-9-yl)methyl)phenethylamino)-1-hydroxyethyl)-4-hydroxybenzo[d]thiazol-2(3H)-one ditrifluoroacetate] was tested, and the IC50 [1] was 1.58 nM, the EC50 [2] was 3.16 nM and the “β2 Intrinsic activity” value [2] was 0.9.

In the case of `Cc1ccc(C(=O)N2CCOC3(CCN(CCc4cccc(CNC[C@H](O)c5ccc(O)c6[nH]c(=O)sc56)c4)CC3)C2)s1` [Example 20, (R)-4-Hydroxy-7-(1-hydroxy-2-(3-(2-(4-(5-methylthiophene-2-carbonyl)-1-oxa-4,9-diazaspiro[5.5]undecan-9-yl)ethyl)benzylamino)ethyl)benzo[d]thiazol-2(3H)-one ditrifluoroacetate], the IC50 [1] is reported as 31.6 nM, the EC50 [2] is reported as 200 nM and the “β2 Intrinsic activity” value [2] is reported as 0.8.

In the case of `Cc1nc(C(=O)N2CCOC3(CCN(CCc4ccc(CNC[C@H](O)c5ccc(O)c6[nH]c(=O)sc56)s4)CC3)C2)cs1` [Example 21, (R)-4-Hydroxy-7-(1-hydroxy-2-((5-(2-(4-(2-methylthiazole-4-carbonyl)-1-oxa-4,9-diazaspiro[5.5]undecan-9-yl)ethyl)thiophen-2-yl)methylamino)ethyl)benzo[d]thiazol-2(3H)-one ditrifluoroacetate], the IC50 [1] is reported as 1 nM, the EC50 [2] is reported as 200 nM and the “β2 Intrinsic activity” value [2] is reported as 0.5.

For `CC(C)c1nc(C(=O)N2CCOC3(CCN(Cc4cccc(CCNC[C@H](O)c5ccc(O)c6[nH]c(=O)sc56)c4)CC3)C2)cs1` [Example 22, (R)-4-Hydroxy-7-O-hydroxy-2-(3-((4-(2-isopropylthiazole-4-carbonyl)-1-oxa-4,9-diazaspiro[5.5]undecan-9-yl)methyl)phenethylamino)ethyl)benzo[d]thiazol-2(3H)-one ditrifluoroacetate], the IC50 [1] was 0.126 nM, the EC50 [2] was 10 nM and the “β2 Intrinsic activity” value [2] was 0.9.

For `CC(C)c1nc(C(=O)N2CCOC3(CCN(Cc4cccc(CCNC[C@H](O)c5ccc(O)c6[nH]c(=O)ccc56)c4)CC3)C2)cs1` [Example 23, (R)-8-Hydroxy-5-(1-hydroxy-2-(3-((4-(2-isopropylthiazole-4-carbonyl)-1-oxa-4,9-diazaspiro[5.5]undecan-9-yl)methyl)phenethylamino)ethyl)quinolin-2(1H)-one ditrifluoroacetate], the IC50 [1] was 0.251 nM, the EC50 [2] was 15.8 nM and the “β2 Intrinsic activity” value [2] was 0.9.

`Cc1nc(C(=O)N2CCOC3(CCN(CCOc4cccc(CCNC[C@H](O)c5ccc(O)c6[nH]c(=O)sc56)c4)CC3)C2)cs1` [Example 24, (R)-4-Hydroxy-7-(1-hydroxy-2-(3-(2-(4-(2-methylthiazole-4-carbonyl)-1-oxa-4,9-diazaspiro[5.5]undecan-9-yl)ethoxy)phenethylamino)ethyl)benzo[d]thiazol-2(3H)-one ditrifluoroacetate] was tested, and the IC50 [1] was 25.1 nM, the EC50 [2] was 5.01 nM and the “β2 Intrinsic activity” value [2] was 1.

In the case of `O=C(c1csc(C(F)(F)F)n1)N1CCOC2(CCN(Cc3cccc(CCNC[C@H](O)c4ccc(O)c5[nH]c(=O)ccc45)c3)CC2)C1` [Example 25, (R)-8-Hydroxy-5-(1-hydroxy-2-(3-((4-(2-(trifluoromethyl)thiazole-4-carbonyl)-1-oxa-4,9-diazaspiro[5.5]undecan-9-yl)methyl)phenethylamino)ethyl)quinolin-2(1H)-one ditrifluoroacetate], the IC50 [1] is reported as 1 nM, the EC50 [2] is reported as 15.8 nM and the “β2 Intrinsic activity” value [2] is reported as 0.8.

In the case of `O=C(c1csc(C(F)(F)F)n1)N1CCOC2(CCN(Cc3cccc(CCNC[C@H](O)c4ccc(O)c5[nH]c(=O)sc45)c3)CC2)C1` [Example 26, (R)-4-Hydroxy-7-(1-hydroxy-2-(3-((4-(2-(trifluoromethyl)thiazole-4-carbonyl)-1-oxa-4,9-diazaspiro[5.5]undecan-9-yl)methyl)phenethylamino)ethyl)benzo[d]thiazol-2(3H)-one ditrifluoroacetate], the IC50 [1] is reported as 0.631 nM, the EC50 [2] is reported as 12.6 nM and the “β2 Intrinsic activity” value [2] is reported as 0.8.

For `Cc1ccc(C(=O)N2CCOC3(CCN(Cc4cc(CCNC[C@H](O)c5ccc(O)c6[nH]c(=O)sc56)cs4)CC3)C2)s1` [Example 27, (R)-4-Hydroxy-7-(1-hydroxy-2-(2-(5-((4-(5-methylthiophene-2-carbonyl)-1-oxa-4,9-diazaspiro[5.5]undecan-9-yl)methyl)thiophen-3-yl)ethylamino)ethyl)benzo[d]thiazol-2(3H)-one ditrifluoroacetate], the IC50 [1] was 2.51 nM, the EC50 [2] was 1.26 nM and the “β2 Intrinsic activity” value [2] was 1.

In the case of `Cc1nc(C(=O)N2CCOC3(CCN(Cc4cc(F)cc(CCNC[C@H](O)c5ccc(O)c6[nH]c(=O)ccc56)c4)CC3)C2)cs1` [Example 28, (R)-5-(2-(3-Fluoro-5-((4-(2-methylthiazole-4-carbonyl)-1-oxa-4,9-diazaspiro[5.5]undecan-9-yl)methyl)phenethylamino)-1-hydroxyethyl)-8-hydroxyquinolin-2(1H)-one ditrifluoroacetate], the IC50 [1] is reported as 2.51 nM, the EC50 [2] is reported as 10 nM and the “β2 Intrinsic activity” value [2] is reported as 1.
